Read-outs that look alike come from different tables or passages of the source.
Experiments:
[1] = tested on: biomarkers for myocardial infarction risk; conditions: clinical trial; cited from earlier work
[2] = tested on: synthesis of LTB4 in human whole blood; test: human whole blood LTB4 production inhibition assay; format: cell-based
Procedure, shortened: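 Readout: plasma LTB4 by antibody-based HTRF. Compound added to heparinized human whole blood, 15 min 37° C; calcimycin 20 μM final (PBS pH 7.4), 30 min 37° C; spun 1500×g 5 min, plasma taken.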

[3] = target: T1, recombinant human FLAP protein (Homo sapiens, UniProt P20292); test: FLAP binding assay (Scintillation Proximity Assay, displacement of [125I]L-691,831); conditions: recombinant human FLAP membranes, [125I]L-691,831 probe; read-out: FLAP SPA IC50
T1 construct: made in house; host or cells: Sf9 insect cells (100,000 x g membrane fraction)
T1 sequence (P20292 1-161): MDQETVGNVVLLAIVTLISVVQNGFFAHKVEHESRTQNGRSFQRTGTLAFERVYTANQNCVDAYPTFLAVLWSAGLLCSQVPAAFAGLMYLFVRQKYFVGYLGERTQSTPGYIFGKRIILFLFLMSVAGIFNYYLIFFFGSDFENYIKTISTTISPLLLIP
Procedure, shortened: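 WGA scintillation proximity beads were stirred 1 h with 5 μg of FLAP-containing membrane protein. The membranes came from baculovirus Sf9 cells, Dounce-lysed and spun to a 100,000×g pellet in buffer at pH 7.5.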

human glomerulonephritis = conditions: clinical trial; cited from earlier work
[4] = tested on: apoE/LDL-R double knockout mice; conditions: oral dosing, high-fat diet from 2 months of age to 6 months; cited from earlier work
ApoE−/−xCD4dnTβRII mice = conditions: infusion, treated for four weeks; cited from earlier work
[5] = Homo sapiens, heparinized human whole blood, calcimycin 20 μM, read-out: hWB LTB4 IC50
[6] = heparinized human whole blood, calcimycin 20 μM, read-out: hWB LTB4 IC50

## O=C(O)[C@@H](c1ccc(OCc2ccc3ccccc3n2)cc1)C1CCCC1 [DG-031]
[1]
  effect on biomarkers for myocardial infarction risk: dose-dependent suppression of several biomarkers

## Nc1ncc(-c2ccc(C3(c4noc(N5CCC(O)CC5)n4)CCC3)cc2)cn1 [Example 284, 1-(3-{1-[4-(2-Amino-pyrimidin-5-yl)-phenyl]-cyclobutyl}-[1,2,4]oxadiazol-5-yl)-piperidin-4-ol]
[2]; [5]
  IC50: 120 nM
[3]
  IC50: 18 nM

## Nc1ncc(-c2ccc(C3(c4noc(N5CCCC(CO)C5)n4)CCC3)cc2)cn1 (stereo not shown) [Example 286, [1-(3-{1-[4-(2-Amino-pyrimidin-5-yl)-phenyl]-cyclobutyl}-[1,2,4]oxadiazol-5-yl)-piperidin-3-yl]-methanol]
[2]; [5]
  IC50: 200 nM
[3]
  IC50: 14 nM

## Nc1ncc(-c2ccc(C3(c4noc(N5CC[C@H](O)C5)n4)CCC3)cc2)cn1 [Example 287, (S)-1-(3-{1-[4-(2-Amino-pyrimidin-5-yl)-phenyl]-cyclobutyl}-[1,2,4]oxadiazol-5-yl)-pyrrolidin-3-ol]
[2]; [5]
  IC50: 200 nM
[3]
  IC50: 36 nM

## Nc1ncc(-c2ccc(C3(c4noc(N5CCC[C@H]5CO)n4)CCC3)cc2)cn1 [Example 288, [(S)-1-(3-{1-[4-(2-Amino-pyrimidin-5-yl)-phenyl]-cyclobutyl}-[1,2,4]oxadiazol-5-yl)-pyrrolidin-2-yl]-methanol]
[2]; [5]
  IC50: 310 nM
[3]
  IC50: 26 nM

## Nc1ncc(-c2ccc(C3(c4noc(N5CCC[C@@H]5CO)n4)CCC3)cc2)cn1 [Example 289, [(R)-1-(3-{1-[4-(2-Amino-pyrimidin-5-yl)-phenyl]-cyclobutyl}-[1,2,4]oxadiazol-5-yl)-pyrrolidin-2-yl]-methanol]
[2]; [5]
  IC50: 500 nM
[3]
  IC50: 31 nM

## Nc1ncc(-c2ccc(C3(c4noc(N5CC[C@@H](O)C5)n4)CCC3)cc2)cn1 [Example 290, (R)-1-(3-{1-[4-(2-Amino-pyrimidin-5-yl)-phenyl]-cyclobutyl}-[1,2,4]oxadiazol-5-yl)-pyrrolidin-3-ol]
[2]; [5]
  IC50: 230 nM
[3]
  IC50: 35 nM

## N#CC1CCN(c2nc(C3(c4ccc(-c5cnc(N)nc5)cc4)CCC3)no2)CC1 [Example 291, 1-(3-{1-[4-(2-Amino-pyrimidin-5-yl)-phenyl]-cyclobutyl}-[1,2,4]oxadiazol-5-yl)-piperidine-4-carbonitrile]
[2]; [5]
  IC50: 210 nM
[3]
  IC50: 19 nM

## CN(CC1CCOCC1)c1nc(C2(c3ccc(-c4cnc(N)nc4)cc3)CCC2)no1 [Example 292, 5-[4-(1-{5-[Methyl-(tetrahydro-pyran-4-ylmethyl)-amino]-[1,2,4]oxadiazol-3-yl}-cyclobutyl)-phenyl]-pyrimidin-2-ylamine]
[2]; [5]
  IC50: 330 nM
[3]
  IC50: 22 nM

## CN1CCC(N(C)c2nc(C3(c4ccc(-c5cnc(N)nc5)cc4)CCC3)no2)CC1 [Example 293, 5-[4-(1-{5-[Methyl-(1-methyl-piperidin-4-yl)-amino]-[1,2,4]oxadiazol-3-yl}-cyclobutyl)-phenyl]-pyrimidin-2-ylamine]
[2]; Homo sapiens, read-out: hWB LTB4 IC50 (nM)
  IC50: 750 nM
[3]
  IC50: 150 nM

## CNc1ncc(-c2ccc(C3(c4noc(-c5cnn(C)c5)n4)CCC3)cc2)cn1 [Example 294, Methyl-[5-(4-{1-[5-(1-methyl-1H-pyrazol-4-yl)-[1,2,4]oxadiazol-3-yl]-cyclobutyl}-phenyl)-pyrimidin-2-yl]-amine]
[2]; [5]
  IC50: 35 nM
[3]
  IC50: 4.4 nM

## Cc1cc(-c2cnc(N)nc2)ccc1C1(c2noc(-c3cnn(C)c3)n2)CCC1 [Example 295]
[2]; [5]
  IC50: 100 nM
[3]
  IC50: 12 nM

## Nc1ccc(-c2ccc(C3(c4noc(-c5cnc(N6CCNCC6)cn5)n4)CCC3)cc2)cn1 [Example 296, 5-(4-{1-[5-(3,4,5,6-Tetrahydro-2H-[1,2′]bipyrazinyl-5′-yl)-[1,2,4]oxadiazol-3-yl]-cyclobutyl}-phenyl)-pyridin-2-ylamine]
[2]; [5]
  IC50: 230 nM
[3]
  IC50: 2.1 nM

## CC(C)(O)Cn1cncc1-c1nc(C2(c3ccc(-c4cnc(N)nc4)cc3)CCC2)no1 [Example 298, 1-[5-(3-{1-[4-(2-Amino-pyrimidin-5-yl)-phenyl]-cyclobutyl}-[1,2,4]oxadiazol-5-yl)-imidazol-1-yl]-2-methyl-propan-2-ol]
[2]; [5]
  IC50: 510 nM
[3]
  IC50: 16 nM

## Nc1cnc(-c2ccc(C3(c4noc(-c5cnn(C6COC6)c5)n4)CCC3)cc2)cn1 [Example 299, 5-(4-{1-[5-(1-Oxetan-3-yl-1H-pyrazol-4-yl)-[1,2,4]oxadiazol-3-yl]-cyclobutyl}-phenyl)-pyrazin-2-ylamine; compound with trifluoro-acetic acid]
[2]; [5]
  IC50: 24 nM
[3]
  IC50: 2.9 nM

## CN(C)C(=O)Cn1cc(-c2nc(C3(c4ccc(-c5ccc(N)nc5)cc4)CCC3)no2)cn1 [Example 301, 2-[4-(3-{1-[4-(6-Amino-pyridin-3-yl)-phenyl]-cyclobutyl}-[1,2,4]oxadiazol-5-yl)-pyrazol-1-yl]-N,N-dimethyl-acetamide]
[2]; [5]
  IC50: 140 nM
[3]
  IC50: 6 nM

## Nc1cnc(-c2ccc(C3(c4noc(-c5cnc(N6CCNCC6)cn5)n4)CCC3)cc2)cn1 [Example 302, 5-(4-{1-[5-(3,4,5,6-Tetrahydro-2H-[1,2′]bipyrazinyl-5′-yl)-[1,2,4]oxadiazol-3-yl]-cyclobutyl}-phenyl)-pyrazin-2-ylamine]
[2]; [5]
  IC50: 150 nM
[3]
  IC50: 2.6 nM

## CN(C)C(=O)Cn1cc(-c2nc(C3(c4ccc(-c5cnc(N)cn5)cc4)CCC3)no2)cn1 [Example 304, 2-[4-(3-{1-[4-(5-Amino-pyrazin-2-yl)-phenyl]-cyclobutyl}-[1,2,4]oxadiazol-5-yl)-pyrazol-1-yl]-N,N-dimethyl-acetamide]
[2]; [5]
  IC50: 65 nM
[3]
  IC50: 10 nM

## Cn1cnc(-c2nc(C3(c4ccc(-c5ccc(N)nc5)cc4)CCC3)no2)c1 [Example 305, 5-(4-{1-[5-(1-Methyl-1H-imidazol-4-yl)-[1,2,4]oxadiazol-3-yl]-cyclobutyl}-phenyl)-pyridin-2-ylamine]
[2]; [5]
  IC50: 120 nM
[3]
  IC50: 15 nM

## C[C@@H]1CCC[C@H](C)N1c1nc(C2(c3ccc(-c4cnc(N)nc4)cc3)CCC2)no1 [Example 306, 5-(4-{1-[5-(cis-2,6-Dimethyl-piperidin-1-yl)-[1,2,4]oxadiazol-3-yl]-cyclobutyl}-phenyl)-pyrimidin-2-ylamine]
[2]; [5]
  IC50: 580 nM
[3]
  IC50: 12 nM

## Nc1ncc(-c2ccc(C3(c4noc(-c5cnc(N6CCNCC6)cn5)n4)CCC3)cc2)cn1 [Example 307, 5-(4-{1-[5-(3,4,5,6-Tetrahydro-2H-1,2′-bipyrazinyl-5′-yl)-1,2,4-oxadiazol-3-yl]-cyclobutyl}-phenyl)-pyrimidin-2-ylamine]
[2]; [6]
  IC50: 150 nM
[3]
  IC50: 3.5 nM

## COC(=O)[C@H]1CN(c2cnc(-c3nc(C4(c5ccc(-c6cnc(N)nc6)cc5)CCC4)no3)cn2)CCN1 [Example 308, (R)-5′-(3-{1-[4-(2-Amino-pyrimidin-5-yl)-phenyl]-cyclobutyl}-1,2,4-oxadiazol-5-yl)-3,4,5,6-tetrahydro-2H-1,2′-bipyrazinyl-3-carboxylic acid methyl ester]
[2]; [6]
  IC50: 480 nM
[3]
  IC50: 5 nM

## COC(=O)[C@@H]1CN(c2cnc(-c3nc(C4(c5ccc(-c6cnc(N)nc6)cc5)CCC4)no3)cn2)CCN1 [Example 309, (S)-5′-(3-{1-[4-(2-Amino-pyrimidin-5-yl)-phenyl]-cyclobutyl}-1,2,4-oxadiazol-5-yl)-3,4,5,6-tetrahydro-2H-1,2′-bipyrazinyl-3-carboxylic acid methyl ester]
[2]; [6]
  IC50: 760 nM
[3]
  IC50: 5.7 nM

## CC(C)(C)Sc1c(CC(C)(C)C(=O)O)n(Cc2ccc(Cl)cc2)c2ccc(OCc3ccc4ccccc4n3)cc12 [MK-591]
Human glomerulonephritis
  effect on proteinuria: reduce proteinuria

## CC(C)c1ccc2c(c1)c(SC(C)(C)C)c(CC(C)(C)C(=O)O)n2Cc1ccc(Cl)cc1 [MK-886]
[4]
  decrease in plaque coverage in the aorta: 56%
  decrease in plaque coverage in the aortic root: 43%
ApoE−/−xCD4dnTβRII mice
  decrease in plaque area in the aortic root: ~40%

Reference: patent US8580829B2 (Boehringer Ingelheim International GmbH, priority 2010, dated 2013)
